Results from the SangsterLogP compilation.

How the values were obtained:
[1] = method code SF-HPLC, from DOI: 10.1016/s0223-5234(98)80037-8; details: pH 7.4
[2] = method code SF, from DOI: 10.1021/jm020886c, PMID: 12852752; details: pH 7.4
[3] = method code SF-AS, from PMID: 7170648; details: pH 7.4
[4] = method code SF-AS, from PMID: 1586384
[5] = not given; remark: listed apart in the source
[6] = method code SF-HPLC, from DOI: 10.1211/146080899128734820; details: pH 2.0
[7] = method code SF-RC, from PMID: 26778147
[8] = pH 7.4
[9] = method code SF, from DOI: 10.1021/jm000996o, PMID: 11087582; details: pH 7.2
[10] = not given; remark: listed apart in the source
[11] = method code SF-AS, from DOI: 10.1016/s0022-3565(25)38749-5, PMID: 8182532; details: pH 7.4
[12] = method code SF-HPLC, from DOI: 10.1002/jps.2600830407, PMID: 8046599; details: pH 7.0
[13] = method code SF-AS, from DOI: 10.1016/0014-2999(72)90235-x, PMID: 4113999
[14] = not given; remark: listed apart in the source
[15] = not given; remark: listed apart in the source
[16] = method code SF-RC, from DOI: 10.1021/acs.jmedchem.6b01291.s001, PMID: 27696839; details: pH 7.4
[17] = method code SF, from DOI: 10.1021/jm980124a, PMID: 9685245; details: pH 13.0
[18] = method code SF-RC, from DOI: 10.1016/s0969-8051(00)00170-0, PMID: 11323238; details: pH 7.4
[19] = not given; remark: listed apart in the source
[20] = not given; remark: listed apart in the source
[21] = not given; remark: listed apart in the source
[22] = not given; remark: listed apart in the source
[23] = method code SF-HPLC, from DOI: 10.1211/0022357001774101, PMID: 10813545
[24] = not given; remark: listed apart in the source
[25] = not given; remark: listed apart in the source
[26] = method code SF-RC, from DOI: 10.2174/1874471011003010009, PMID: 20657759; details: pH 7.4
[27] = from Medić-Šarić, M; Mornar, A.; Badovinac-Črnjević, T; Jasprica, I. (2004). Experimental and calculation procedures for molecular lipophilicity: A comparative study for …; details: pH 7.4
[28] = method code SF-HPLC, from DOI: 10.1002/jps.2600840603, PMID: 7562403; details: pH 7.4
[29] = method code SF, from DOI: 10.4103/0250-474x.119813, PMID: 24302794; details: pH 7.4
[30] = method code SF-AS, from PMID: 7460030; details: pH 7.3
[31] = method code SF-RC, from DOI: 10.1016/j.nucmedbio.2014.05.001, PMID: 24969632; details: pH 7.4
[32] = method code SF-HPLC, from DOI: 10.1002/jps.2600800905, PMID: 1800703; details: pH 7.0
[33] = not given; remark: listed apart in the source
[34] = method code SF, from DOI: 10.1016/j.bmc.2011.10.022, PMID: 22100260; details: pH 7.4
[35] = method code SF-RC, from DOI: 10.1016/j.nucmedbio.2007.12.005, PMID: 18355688; details: pH 7.4
[36] = method code SF, from DOI: 10.1016/s0960-894x(01)80459-5
[37] = not given; remark: listed apart in the source
[38] = not given; remark: listed apart in the source
[39] = not given; remark: listed apart in the source

COc1ccc2cc(C(C)C(=O)OCN3C(=O)c4ccccc4C3=O)ccc2c1 (stereo not given)
logD [1]: 5.03

Cc1ccc(CCOCCCS(=O)(=O)CCNCCc2ccc(O)c3[nH]c(=O)sc23)cc1-c1nccs1
logD [2]: 1.44

CCN(Cc1cc(Nc2ccnc3cc(Cl)ccc23)ccc1O)C(=O)N1CCN(C)CC1
logD [3]: 3.43

Cc1ccc(N2C(=O)C(=O)N(C(=O)COc3ccc4c(C)cc(=O)oc4c3C)C2=O)cc1
logP: 0.84

CCOC(=O)OC(C)OC(=O)c1cn2c3c(c(N4CCN(C)CC4)c(F)cc3c1=O)OCC2C (stereo not given)
logP [4]: 0.44

COc1cc(N)c(Cl)cc1C(=O)NC1CC2CCCC(C1)N2Cc1ccc(F)cc1 (stereo not given)
logP [5]: 2.56

CC[C@H](C)C(=O)O[C@H]1C[C@@H](C)C=C2C=C[C@H](C)[C@H](CC[C@@H]3C[C@@H](O)CC(=O)O3)[C@H]21
logD [6]: 4.04

O=C(Nc1ccc(F)cc1)c1ccc(N2CCN(C(=O)c3ccccc3C(F)(F)F)CC2)nn1
logP [7]: 2.08

Cc1c(C(=O)Nc2ccc(F)cc2)nn(-c2ccc(Cl)cc2Cl)c1-c1ccc(Br)cc1
logD [8]: 4

Cc1cn(C2CC(N=[N+]=[N-])C(COP(=O)(OCCSC(=O)C(C)(C)C)OCCSC(=O)C(C)(C)C)O2)c(=O)[nH]c1=O (stereo not given)
logD [9]: 3.73

CCC12C=C(C(=O)OCCOC(C)=O)n3c4c(c5ccccc53)CCN(CCC1)C42 (stereo not given)
logP [10]: 4.5

O=S1(=O)c2cccc3cccc(c23)N1CCCN1CCN(c2ccc(F)cc2)CC1
logD [11]: 3.6

Cc1cn(C2CC(N=[N+]=[N-])C(COC(=O)CNC(=O)C34CC5CC(CC(C5)C3)C4)O2)c(=O)[nH]c1=O (stereo not given)
logD [12]: 2.1

OCCN1CCN(CC/C=C2/c3ccccc3Sc3ccc(C(F)(F)F)cc32)CC1
logP [13]: 3.83

FCCCCC1OC2(CCN(Cc3ccccc3)CC2)c2ccccc21 (stereo not given)
logP [14]: 4.06

CC(C)C(Nc1ccc(C(F)(F)F)cc1Cl)C(=O)OC(C#N)c1cccc(Oc2ccccc2)c1 (racemic)
logP [15]: 5.5

O=C(NO)C1CC(O)CN1C(=O)c1ccc(C#Cc2ccc(OCCCCCF)cc2)cc1 (stereo not given)
logD [16]: 2.5

CCC(C)c1ccc(N2CCCN(c3ccc(C(C)CC)cc3)C2=N)cc1 (stereo not given)
logD [17]: 5.28

COc1cc2ncnc(N3CCC(n4c(=O)c5cc(C)ccc5n(C)c4=O)CC3)c2cc1OC
logD [18]: 3.14

CCN(Cc1cccnc1)C(=O)CN(c1ccc(OC)nc1)S(=O)(=O)c1ccccc1C
logP [19]: 2.24

CC(=O)OCC(=O)[C@@]1(O)[C@H](C)C[C@H]2[C@@H]3CCC4=CC(=O)C=C[C@]4(C)[C@@]3(F)[C@@H](O)C[C@@]21C
logP [20]: 2.59

CC1C=C(C(=O)Nc2ccc(-c3ccccc3S(N)(=O)=O)cc2)N(c2ccc3ccnc(N)c3c2)N1 (stereo not given)
logP [21]: 2.6

CN1CN(c2ccccc2)C2(CCN(CCCC(=O)c3ccc(F)cc3)CC2)C1=O
logP [22]: 3.37

C[C@]12CC[C@H]3[C@@H](CCC4=CC(=O)CC[C@@]43C)[C@@H]1CC[C@@H]2OC(=O)CCC(=O)O
logP [23]: 3.55

CCCN(CCCCN1C(=O)CC2(CCCC2)C(O)C1=O)C1COc2cccc(OC)c2C1 (stereo not given)
logP [24]: 4.1

O=C(OCC1C2CC3CCC1N3CC2=Cc1ccc(I)c(Cl)c1)c1ccccc1 (stereo not given)
logP [25]: 6.41

COc1ccc2cccc(N3CCN(CCNC(=O)c4ccc(F)cc4)CC3)c2c1
logD [26]: 4.14

COc1ccccc1C(c1cc2ccccc2oc1=O)c1cc2ccccc2oc1=O
logD [27]: 2.5

CCCC1O[C@@H]2C[C@H]3[C@@H]4CCC5=CC(=O)C=C[C@]5(C)[C@H]4[C@@H](O)C[C@]3(C)[C@]2(C(=O)CO)O1 (stereo not given in full)
logD [28]: 3.55

CCc1cccc2c3c([nH]c12)C(CC)(CC(=O)N[C@@H](C=O)[C@@H](O)[C@H](O)[C@H](O)CO)OCC3 (stereo not given in full)
logD [29]: 1.35

CCCCCCCOc1cccc(NC(=O)OC2CCCCC2n2ccnc2)c1 (stereo not given)
logD [30]: 5.64

O=C(OC(C(F)(F)F)C(F)(F)F)N1CCC(C(O)(c2ccc3c(c2)OCO3)c2ccc3c(c2)OCO3)CC1
logD [31]: 4.67

CC[C@H](C)C(=O)O[C@H]1C[C@H](O)C=C2C=C[C@H](C)[C@H](CC[C@@H]3C[C@@H](O)CC(=O)O3)[C@H]21
logD [32]: 2.45

CC(=O)O[C@]1(C(C)=O)CC[C@H]2[C@@H]3CCC4=CC(=O)CC[C@]4(C)[C@H]3CC[C@@]21C
logP [33]: 3.79

CCN1CCN(S(=O)(=O)c2cnc(O)c(-c3nc4c5n(nc4c(=O)[nH]3)CCCC5CCOC)c2)CC1 (stereo not given)
logD [34]: 1.6

CN(Cc1ccccc1)C(=O)Cc1c(-c2ccc(Cl)cc2)nc2c(Cl)cc(Cl)cn12
logD [35]: 2.67

CCCCCCOP(=O)(OCC1CC(O)C(n2cnc3c(N)ncnc32)O1)OCC1OC(n2cc(C)c(=O)[nH]c2=O)CC1N=[N+]=[N-] (stereo not given)
logP [36]: 1.11

CCC1(C)C2CN(Cc3ccccc3)CC1CN(CC1CCCCC1)C2 (stereo not given)
logP [37]: 6.65

CC(=O)OC1C(c2ccc(=O)oc2)[C@@]2(C)CC[C@H]3[C@@H](CC[C@@H]4CC(O)CC[C@@]43C)[C@]23OC13 (stereo not given in full)
logP [38]: 3.27

CC(C)(C)OC(=O)NC(Cc1ccccc1)C(=O)N1CCCC1C(=O)NCc1ccc(N)cc1 (stereo not given)
logP [39]: 2.34
